The values that follow come from patent US20200236940A1, “2-(HET)ARYL-SUBSTITUTED FUSED HETEROCYCLE DERIVATIVES AS PESTICIDES” (Bayer Aktiengesellschaft, priority 2017, published 2020).

Each structure is given as a SMILES string.

Holding throughout (format): in vivo
Assay [1] deals with Myzus persicae. The assay can be described thus: Myzus persicae oral test. The conditions noted are these: 120 h, application rate 4 ppm, after 5 days, read-out: efficacy. How it is done:
Myzus persicae—Oral Test Solvent: 100 parts by weight of acetone To produce a suitable active ingredient formulation, 1 part by weight of active ingredient is dissolved with the stated parts by weight of solvent and made up to the desired concentration with water. 50 μl of the active ingredient formulation are transferred into microtitre plates and made up to a final volume of 200 μl with 150 μl of IPL41 insect medium (33%+15% sugar). Subsequently, the plates are sealed with parafilm, which a mixed population of green peach aphids (Myzus persicae) within a second microtitre plate is able to puncture and imbibe the solution. After 5 days, the efficacy in % is determined. 100% means that all the aphids have been killed; 0% means that no aphids have been killed.

Assay [2] deals with Ctenocephalides felis. Put plainly: Ctenocephalides felis oral test. The conditions noted are these: application rate 100 ppm, after 2 days. On the procedure:
Ctenocephalides felis—Oral Test Solvent: dimethyl sulfoxide To produce a suitable active ingredient formulation, 10 mg of active ingredient are mixed with 0.5 ml of dimethyl sulfoxide. Dilution with citrated cattle blood gives the desired concentration. About 20 unfed adult cat fleas (Ctenocephalides felis) are placed into a chamber which is closed at the top and bottom with gauze. A metal cylinder whose bottom end is closed with parafilm is placed onto the chamber. The cylinder contains the blood/active ingredient formulation, which can be imbibed by the fleas through the parafilm membrane. After 2 days, the kill in % is determined. 100% means that all of the fleas have been killed; 0% means that none of the fleas have been killed.

The next assay has as its system Lucilia cuprina. The assay can be described thus: Lucilia cuprina test. The conditions noted are these: after 2 days, L1 larvae. On the procedure:
Lucilia cuprina Test Solvent: dimethyl sulfoxide To produce a suitable active ingredient formulation, 10 mg of active ingredient are mixed with 0.5 ml of dimethyl sulfoxide, and the concentrate is diluted with water to the desired concentration. About 20 L1 larvae of the Australian sheep blowfly (Lucilia cuprina) are transferred into a test vessel containing minced horsemeat and the active ingredient formulation of the desired concentration. After 2 days, the kill in % is determined. 100% means that all the larvae have been killed; 0% means that no larvae have been killed.

The test system of another assay is Musca domestica. The assay can be described thus: Musca domestica test. The conditions noted are these: application rate 100 ppm, after 2 days, adult houseflies. How it is done: Musca domestica Test Solvent: dimethyl sulfoxide To produce a suitable active ingredient formulation, 10 mg of active ingredient are mixed with 0.5 ml of dimethyl sulfoxide, and the concentrate is diluted with water to the desired concentration. Vessels containing a sponge treated with sugar solution and the desired concentration of active ingredient formulation are populated with 10 adult houseflies (Musca domestica). After 2 days, the kill in % is determined. 100% means that all the flies were killed; 0% means that no flies were killed.

Assay [3] has as its system Phaedon cochleariae. Put plainly: Phaedon cochleariae spray test, Chinese cabbage leaf discs. The conditions noted are these: foliar, 168 h, application rate 100 g/ha, after 7 days, larvae, read-out: efficacy. On the procedure:
Phaedon cochleariae—Spray Test
To produce a suitable active ingredient formulation, 1 part by weight of active ingredient is dissolved with the specified parts by weight of solvent and made up to the desired concentration with water containing an emulsifier concentration of 1000 ppm. To produce further test concentrations, the formulation is diluted with emulsifier-containing water.
After 7 days, the efficacy in % is determined. 100% means that all the beetle larvae have been killed; 0% means that no beetle larvae have been killed.

In assay [4] the test system is Myzus persicae. Put plainly: Myzus persicae spray test (MYZUPE), Chinese cabbage leaf discs. Particulars: foliar, 120 h. On the procedure:
Myzus persicae—Spray Test [table] To produce a suitable active ingredient formulation, 1 part by weight of active ingredient is dissolved with the specified parts by weight of solvent and made up to the desired concentration with water containing an emulsifier concentration of 1000 ppm. To produce further test concentrations, the formulation is diluted with emulsifier-containing water. Discs of Chinese cabbage leaves (Brassica pekinensis) infested by all stages of the green peach aphid (Myzus persicae) are sprayed with an active ingredient formulation of the desired concentration. After 5 days, the efficacy in % is determined. 100% means that all the aphids have been killed; 0% means that no aphids have been killed. Myzus persicae—Spray Test (MYZUPE) [table] To produce a suitable active ingredient formulation, 1 part by weight of active ingredient is dissolved with the specified parts by weight of solvent and made up to the desired concentration with water containing an emulsifier concentration of 1000 ppm. To produce further test concentrations, the formulation is diluted with emulsifier-containing water. Discs of Chinese cabbage leaves (Brassica pekinensis) infested by all stages of the green peach aphid (Myzus persicae) are sprayed with an active ingredient formulation of the desired concentration. After the desired period of time, the efficacy in % is determined. 100% means that all the aphids have been killed; 0% means that no aphids have been killed.

Another assay deals with Boophilus microplus. The assay can be described thus: Boophilus microplus injection test. The conditions noted are these: application rate 20 μg/animal, after 7 days, laying of fertile eggs. How it is done:
Boophilus microplus—Injection Test Solvent: dimethyl sulfoxide To produce a suitable active ingredient formulation, 10 mg of active ingredient are mixed with 0.5 ml of solvent and the concentrate is diluted to the desired concentration with solvent. 1 μl of the active ingredient solution is injected into the abdomen of 5 engorged adult female cattle ticks (Boophilus microplus). The animals are transferred into dishes and kept in a climate-controlled room. Efficacy is assessed after 7 days by laying of fertile eggs. Eggs which are not visibly fertile are stored in a climate-controlled cabinet until the larvae hatch after about 42 days. An efficacy of 100% means that none of the ticks has laid any fertile eggs; 0% means that all the eggs are fertile.

The subject of assay [5] is Myzus persicae. The assay can be described thus: Myzus persicae spray test, bell pepper plants. Particulars: application rate 20 ppm, after 6 days. How it is done: Myzus persicae—Spray Test Solvent: 14 parts by weight of dimethylformamide Emulsifier: alkylaryl polyglycol ether To produce a suitable active ingredient formulation, 1 part by weight of active ingredient is dissolved with the specified parts by weight of solvent and made up to the desired concentration with water containing an emulsifier concentration of 1000 ppm. To produce further test concentrations, the formulation is diluted with emulsifier-containing water. If the addition of ammonium salts or/and penetrants is required, these are each added in a concentration of 1000 ppm to the formulation solution. Bell pepper plants (Capsicum annuum) severely infested with the green peach aphid (Myzus persicae) are treated by spraying with the active ingredient formulation in the desired concentration. After 6 days, the kill in % is determined. 100% means that all of the aphids have been killed; 0% means that none of the aphids have been killed.

Assay [6] concerns Ctenocephalides felis. The assay can be described thus: Ctenocephalides felis in vitro contact test with adult cat fleas. Particulars: application rate 5 μg/cm^2 (=500 g/ha), after 48 h. How it is done: Ctenocephalides felis—In Vitro Contact Tests with Adult Cat Fleas For the coating of the test tubes, 9 mg of active ingredient are first dissolved in 1 ml of acetone p.a. and then diluted to the desired concentration with acetone p.a. 250 μl of the solution are distributed homogeneously on the inner walls and the base of a 25 ml glass tube by turning and rocking on an orbital shaker (rocking rotation at 30 rpm for 2 h). With 900 ppm of active ingredient solution and internal surface area 44.7 cm^2, given homogeneous distribution, an area-based dose of 5 μg/cm^2 is achieved. After the solvent has evaporated off, the tubes are populated with 5-10 adult cat fleas (Ctenocephalides felis), sealed with a perforated plastic lid and incubated in a horizontal position at room temperature and ambient humidity. After 48 h, efficacy is determined. To this end, the tubes are stood upright and the fleas are knocked to the base of the tube. Fleas which remain motionless at the base or move in an uncoordinated manner are considered to be dead or moribund. […] 100% efficacy means that all the fleas were dead or moribund. 0% efficacy means that no fleas were harmed.

Assay [7] relates to Spodoptera frugiperda. The assay can be described thus: Spodoptera frugiperda spray test (SPODFR S), cotton leaves. The conditions noted are these: 168 h, 7 dat, read-out: % efficacy. On the procedure:
Spodoptera frugiperda—Spray Test (SPODFR S) Solvent: 14 parts by weight of dimethylformamide Emulsifier: alkylaryl polyglycol ether To produce a suitable active ingredient formulation, 1 part by weight of active ingredient is dissolved with the specified parts by weight of solvent and made up to the desired concentration with water containing an emulsifier concentration of 1000 ppm. To produce further test concentrations, the formulation is diluted with emulsifier-containing water. If the addition of ammonium salts or/and penetrants is required, these are each added in a concentration of 1000 ppm to the formulation solution. Cotton leaves (Gossypium hirsutum) are sprayed with an active ingredient formulation of the desired concentration and populated with caterpillars of the armyworm (Spodoptera frugiperda). After the desired time, the kill in % is determined. 100% means that all caterpillars have been killed; 0% means that none of the caterpillars have been killed.

For a further assay, the system named is Nilaparvata lugens. The assay can be described thus: Nilaparvata lugens spray test (NILALU). The conditions noted are these: 96 h, 4 dat, read-out: % efficacy. On the procedure: Nilaparvata lugens—Spray Test (NILALU)
(§1) To produce a suitable active ingredient formulation, 1 part by weight of active ingredient is dissolved with the specified parts by weight of solvent and made up to the desired concentration with water containing an emulsifier concentration of 1000 ppm. To produce further test concentrations, the formulation is diluted with emulsifier-containing water. If the addition of ammonium salts or/and penetrants is required, these are each added in a concentration of 1000 ppm to the formulation solution.
Rice plants (Oryza sativa) are sprayed with an active ingredient formulation of the desired concentration and then populated with larvae of the brown planthopper (Nilaparvata lugens).
[…], the efficacy in % is determined. 100% means that all of the planthoppers have been killed; 0% means that none of the planthoppers have been killed.

The subject of assay [8] is Spodoptera frugiperda. The assay can be described thus: Spodoptera frugiperda drench test (SPODFR D). The conditions noted are these: soil, 336 h, 14 dat, read-out: % efficacy. How it is done:
Spodoptera frugiperda—Drench Test (SPODFR D) [table] To produce a suitable active ingredient formulation, 1 part by weight of active ingredient is mixed with the specified amounts of solvent and emulsifier, and the concentrate is diluted with water to the desired concentration, it being necessary to take into account the volume of soil which is drenched. It should be ensured that a concentration of 40 ppm of emulsifier in the soil is not exceeded. To produce further test concentrations, water is used for dilution. Maize plants (Zea mays) in pots of soil are watered with an active ingredient formulation of the desired concentration and infected with caterpillars of the armyworm (Spodoptera frugiperda). After the desired time, the kill in % is determined. 100% means that all caterpillars have been killed; 0% means that none of the caterpillars have been killed.

For assay [9], the system named is Phaedon cochleariae. Put plainly: Phaedon cochleariae spray test (PHAECO), cabbage leaves. The conditions noted are these: 168 h, 7 dat, read-out: % efficacy. How it is done: Phaedon cochleariae—Spray Test (PHAECO)
Solvent: 14 parts by weight of dimethylformamide
Emulsifier: alkylaryl polyglycol ether
as §1
Cabbage leaves (Brassica oleracea) are sprayed with an active ingredient formulation of the desired concentration and populated with larvae of the mustard beetle (Phaedon cochleariae).
After the desired time, the kill in % is determined. 100% means that all the beetle larvae have been killed; 0% means that no beetle larvae have been killed.

Another assay deals with Nezara viridula. The assay can be described thus: Nezara viridula spray test. Particulars: 96 h, NEZAVI, 500 g of ai/ha, 4 dat, read-out: % efficacy. On the procedure: Nezara viridula—Spray Test [table] To produce a suitable active ingredient formulation, 1 part by weight of active ingredient is dissolved with the specified parts by weight of solvent and made up to the desired concentration with water containing an emulsifier concentration of 1000 ppm. To produce further test concentrations, the formulation is diluted with emulsifier-containing water. If the addition of ammonium salts or/and penetrants is required, these are each added in a concentration of 1000 ppm to the formulation solution. Barley plants (Hordeum vulgare) infected with larvae of the Southern green shield bug (Nezara viridula) are sprayed with an active ingredient formulation of the desired concentration. After the desired period of time, the efficacy in % is determined. 100% means that all of the shield bugs have been killed; 0% means that none of the shield bugs have been killed.

Regarding `CCS(=O)(=O)c1ccc(-n2cncn2)nc1-c1nc2cc(C(F)(F)F)nc(C)c2n1C` [Example I-003], the pest or weed control at 4 ppm with Myzus persicae [1] was 100%. Moreover, the “efficacy (kill)” value in the assay on Ctenocephalides felis [2], with Lucilia cuprina (application rate 100 ppm) and with Musca domestica was 100% throughout. Besides, the pest or weed control at 100 g/ha with Phaedon cochleariae [3] worked out at 83%. The pest or weed control at 20 g/ha in the assay with Myzus persicae [4] (application rate 20 g/ha, after 5 days, read-out: efficacy) was found to be 90%. Further, the efficacy with Boophilus microplus turned out to be 100%.
As to `CCS(=O)(=O)c1ccc(-n2ccnn2)nc1-c1nc2cc(C(F)(F)F)nc(C)c2n1C` [Example I-013], in the assay with Myzus persicae [1], the pest or weed control at 4 ppm stood at 100%. Further, the “efficacy (kill)” value with Ctenocephalides felis [2] turned out to be 100%; with Lucilia cuprina (application rate 20 ppm), 80%; in the assay on Lucilia cuprina (application rate 100 ppm), 100%; in the assay on Musca domestica it was 100%; in the assay on Myzus persicae [5], 100%. Besides, the pest or weed control at 100 g/ha in the assay with Phaedon cochleariae [3] was 83%. Besides, the Emax at 4 g/ha in the assay on Myzus persicae [4] (MYZUPE, 4 g of ai/ha, 5 dat, read-out: % efficacy) was 70%. The molecule also gave an efficacy with Ctenocephalides felis [6] of 100%.
On to `CCS(=O)(=O)c1ccc(-n2ncn(-c3ccc(Cl)cc3)c2=O)nc1-c1nc2cc(C(F)(F)F)ncc2n1C` [Prior art WO 2017/055185 (Ex. I-19), reference compound], for which the Emax at 4 ppm in the assay on Spodoptera frugiperda [7] was found to be 35%. In addition, the Emax at 100 g/ha came to 0% in the assay with Nilaparvata lugens (100 g of ai/ha) and 0% in the assay on Myzus persicae [4] (MYZUPE, 100 g of ai/ha, 5 dat, read-out: % efficacy). Moreover, the Emax at 500 g/ha with Nilaparvata lugens (500 g of ai/ha) and in the assay with Nezara viridula was 0% each time. Further, in the assay on Spodoptera frugiperda [8], the Emax at 20 ppm was determined as 0%. Also, the Emax at 0.8 ppm in the assay on Phaedon cochleariae [9] came out at 70%. In addition, the Emax at 20 g/ha with Myzus persicae [4] (MYZUPE, 20 g of ai/ha, 5 dat, read-out: % efficacy) came to 0%.
